Laboratory results: patent US8507547B2, “Anti-fatigue agents and oral compositions containing andrographolide as active ingredient” (Suntory Holdings Limited, priority 2007, dated 2013)

Tests used:
Sprague Dawley rats [1] = assay: Measurement of fatigue substance in blood (creatine kinase activity in blood plasma after forced exercise); format: in vivo; settings: 2 mg per kilogram of body weight orally twice daily, five times in total, before forced exercise stress; FIG. 4
Text: The fourth test is measurement of an amount of fatigue substance. This is described in detail below in Example 4. The test is to determine the effect of administration of the test substance on the amount of fatigue substance at the time when physical or mental stress is applied. Since the fatigue substances change according to the type, intensity, duration, or the like of fatigue that is applied, they are not clearly defined as an indicator, but creatine kinase in blood can be named as one of the candidate substances. Creatine kinase is an enzyme that catalyzes high-energy phosphoryl group transfer from creatine phosphate to ADP, and is considered to serve physiological functions of consuming creatine phosphate to supply ATP at the time of massive energy consumption, such as twitching of skeletal muscles upon instantaneous short-term exercise, in an in vivo energy system. […] It is therefore said that the level of damage on the muscle can be determined by measuring the creatine kinase activity in blood. […]
Muscle fatigue in a living body was determined using creatine kinase levels in blood as a reference index. […] Blood was taken out from a tale vein immediately after the exercise stress, and creatine kinase activity in blood plasma was measured with a biochemistry automatic analyzer (Model 7070, Hitachi High-Technologies Corporation) using an enzyme method. […]

Sprague Dawley rats [2] = assay: Forced exercise test (amount of spontaneous exercise after treadmill exercise stress); format: in vivo; settings: 2 mg per kilogram of body weight orally after 3 hours treadmill exercise stress; FIG. 3
Method: The third test is measurement of an amount of spontaneous exercise in a forced exercise test. This is described in detail below in Example 3. Rats were forced to exercise on a treadmill, and thereafter the test substance was administered. Then, the amount of spontaneous exercise of the animal was measured. Since this animal model is an exercise fatigue (physical fatigue) model, anti-fatigue action against physical fatigue would be confirmed if increase in the amount of spontaneous exercise is observed after the administration of the test substance. Such anti-fatigue action is considered to be involved in improving endurance and exercise performance.
Six-week-old male Sprague Dawley rats were used as a test animal. On the day before the test was started, the rats were divided into five groups each having eight rats, and all of the rats were deprived of food since the morning of the test day. […] Thereafter, the rats were moved into a spontaneous exercise measuring device having an infrared sensor (Supermex, Muromachi Kikai Co., Ltd.), and an amount of spontaneous exercise was measured during a period of 0-2 hours (exploration) and a period of 2-14 hours (dark period). […]

## C=C1CC[C@@H]2[C@](C)(CO)[C@H](O)CC[C@@]2(C)[C@@H]1C/C=C1/C(=O)OC[C@H]1O [andrographolide]
Sprague Dawley rats [1]
  creatine kinase activity in blood plasma: decrease in creatine kinase activity was observed
Sprague Dawley rats [2]
  amount of spontaneous exercise: increase in the amount of spontaneous exercise was observed
